Reference: patent US20240175039A1, “ENGINEERING PROBIOTIC FOR DEGRADING URIC ACID, AND CONSTRUCTION METHOD THEREFOR AND USE THEREOF” (SHANDONG UNIVERSITY, priority 2022, published 2024)

Tests used:
[1] = test system: Bacillus subtilis PucLM (complete PucL co-expressed with PucM, wild type; PucM SEQ ID NO: 2); test: UA degradation kinetics (Km, Vmax), cell extract of EcN::pMCS2-Ptrc-pucLM; type: biochemical
Excerpt: (§1) The pucL (Gene ID: 936669) and pucM (Gene ID: 937977) genes from Bacillus subtilis were codon-optimized and synthesized by Beijing Genomics Institute (BGI, Beijing). Asp-214 and Gln-438 of PucL were mutated to Val and Arg, respectively. The mutated pucL was named as pucL^M, and pucL^M was codon-optimized and synthesized by Beijing Genomics Institute (BGI, Beijing). The vhb gene (Protein ID: WP_019959060.1) from Vitreoscilla sp. C1 was codon-optimized and synthesized by Beijing Genomics Institute (BGI, Beijing). The ygfU (Gene ID: 949017) and the katG (Gene ID: 948431) genes were PCR amplified from E. coli MG1655 genomic DNA.
(§2) (1) UA was measured in a buffer solution using a spectrophotometer by directly measuring the absorbance at 293 nm. Firstly, UA standard solutions of 0, 10 μM, 15 μM, 20 μM, 30 μM, 40 μM, 50 μM, 60 μM, and 70 μM were prepared to plot an UA concentration standard curve, obtaining a curve R2 of 0.9997. Subsequently, appropriate dilutions were performed for measurement, and UA concentration was determined.
The activity of PucL^T can be enhanced by the D44V and Q268R mutations. We directly mutated two sites in the complete PucL (PucLM) and co-expressed them with PucM in EcN (EcN::pMCS2-Ptrc-pucL^MM). Determined by using cell extracts, the Vmax of PucL^MM increased by approximately 1.8 times compared to PucLM. […] Due to the increase in Km, the UA degradation ability of the whole cell of EcN::pMCS2-Ptrc-pucL^MM was weakened when the concentration of UA was low (FIG. 2C).

[2] = biological target: T1, Bacillus subtilis PucL^MM (PucL variant PucL^M, Asp-214 to Val and Gln-438 to Arg (D44V and Q268R in PucL^T), SEQ ID NO: 1, co-expressed with PucM, SEQ ID NO: 2 (Bacillus subtilis, UniProt O32141, D214V/Q438R)); test: UA degradation kinetics (Km, Vmax), cell extract of EcN::pMCS2-Ptrc-pucL^MM; type: biochemical; conditions: cell extracts
T1 sequence (O32141 1-494 D214V/Q438R): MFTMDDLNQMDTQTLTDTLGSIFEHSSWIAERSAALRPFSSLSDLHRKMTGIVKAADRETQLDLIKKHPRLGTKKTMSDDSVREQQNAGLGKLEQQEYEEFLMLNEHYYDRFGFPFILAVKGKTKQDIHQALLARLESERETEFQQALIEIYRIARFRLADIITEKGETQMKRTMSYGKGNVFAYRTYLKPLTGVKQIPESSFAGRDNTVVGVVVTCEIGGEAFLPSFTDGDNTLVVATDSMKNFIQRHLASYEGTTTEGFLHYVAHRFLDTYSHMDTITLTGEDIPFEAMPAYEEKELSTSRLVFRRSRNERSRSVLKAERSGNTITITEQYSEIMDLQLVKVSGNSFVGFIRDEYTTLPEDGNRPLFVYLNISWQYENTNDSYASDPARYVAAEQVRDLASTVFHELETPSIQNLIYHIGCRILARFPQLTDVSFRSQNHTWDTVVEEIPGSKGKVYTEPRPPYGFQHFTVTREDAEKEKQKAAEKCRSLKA
T1 sequence (O32142 1-114 partner): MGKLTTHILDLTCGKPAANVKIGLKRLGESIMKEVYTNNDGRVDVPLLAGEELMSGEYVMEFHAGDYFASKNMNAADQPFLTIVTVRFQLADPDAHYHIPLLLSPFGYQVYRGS
Excerpt: (§3) The urate oxidase gene is specifically PucL^M and PucM, whose nucleotide sequences are shown as SEQ ID NO: 1 and SEQ ID NO: 2, respectively; they act together, and in the present invention, they are named PucL^MM.
as §1
(§4) (1) UA was measured in a buffer solution using a spectrophotometer by directly measuring the absorbance at 293 nm. […] Subsequently, appropriate dilutions were performed for measurement, and UA concentration was determined.
(§5) The activity of PucL^T can be enhanced by the D44V and Q268R mutations. […] Determined by using cell extracts, the Vmax of PucL^MM increased by approximately 1.8 times compared to PucLM. […]

[3] = substrate: O=c1[nH]c(=O)c2[nH]c(=O)[nH]c2[nH]1; test: as above; type: biochemical, Bacillus subtilis; conditions: other: cell extract, recombinant EcN::pMCS2-Ptrc-pucL^MM
Excerpt: as §3, §1, §4, §5

[4] = substrate: O=c1[nH]c(=O)c2[nH]c(=O)[nH]c2[nH]1; test: UA degradation kinetics (Km, Vmax), cell extract of EcN::pMCS2-Ptrc-pucL^T; type: biochemical, Bacillus subtilis; conditions: other: cell extract, recombinant EcN::pMCS2-Ptrc-pucL^T
Excerpt: as §1, §2
The UriC domain of PucL (PucL^T) catalyzes step 1 in the UA degradation (FIG. 1), and steps 2 and 3 can occur spontaneously. […]
as §5

[5] = cell extract, recombinant EcN::pMCS2-Ptrc-pucLM

Molecule: O=c1[nH]c(=O)c2[nH]c(=O)[nH]c2[nH]1 [UA, uric acid]
- Km [1, 5]: 17.2 µM
- Vmax [1, 5]: 13.88 µM/mg/min
- Km of PucLM compared with PucL^T ([1]; cell extracts): significantly reduced
- Vmax of PucLM compared with PucL^T ([1]; cell extracts): similar
- Km increase of PucL^MM compared to PucLM [2]: approximately 2.0 times
- Vmax increase of PucL^MM compared to PucLM [2]: approximately 1.8 times

B1: Bacillus subtilis PucL^MM (PucL variant PucL^M, Asp-214 to Val and Gln-438 to Arg (D44V and Q268R in PucL^T), SEQ ID NO: 1, co-expressed with PucM, SEQ ID NO: … (protein)
chain: T1 sequence (O32141 1-494 D214V/Q438R)
- Km [3]: 52.54 µM
- Vmax [3]: 38.6 µM/min/mg

B2: Bacillus subtilis PucL^T (UriC domain of PucL, urate oxidase) (Bacillus subtilis subsp. subtilis str. 168) (protein)
chain: MKRTMSYGKGNVFAYRTYLKPLTGVKQIPESSFAGRDNTVVGVDVTCEIGGEAFLPSFTDGDNTLVVATDSMKNFIQRHLASYEGTTTEGFLHYVAHRFLDTYSHMDTITLTGEDIPFEAMPAYEEKELSTSRLVFRRSRNERSRSVLKAERSGNTITITEQYSEIMDLQLVKVSGNSFVGFIRDEYTTLPEDGNRPLFVYLNISWQYENTNDSYASDPARYVAAEQVRDLASTVFHELETPSIQNLIYHIGCRILARFPQLTDVSFQSQNHTWDTVVEEIPGSKGKVYTEPRPPYGFQHFTVTREDAEKEKQKAAEKCRSLKA
- Km [4]: 61.03 µM
- Vmax [4]: 12.3 µM/min/mg
